Source: patent US20260250250A1, “3-(SULPHONYL OR SULFONIMIDOYL)PROP-2-EN-1-YL]-2-OXO-1,2-DIHYDROPYRIDINE-3-CARBOXAMIDE DERIVATIVES” (Flinder Therapeutics B.V., priority 2022, published 2026)
Where two headings read alike, the source gives them in different places.

Columns and labels:
NF-κB signaling pathway = experiment: Cell-based dual luciferase NF-κB reporter assay (HEK293 cells, TNF stimulated)
Procedure, shortened: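 HEK293 cells transfected with Firefly luciferase and NF-κB-response-element NanoLuc plasmids; compounds at 100–0.005 µM in 1% DMSO. Cells stimulated with 2.5 ng/mL TNF 30 min after compound addition. Firefly and NanoLuc activities read after 6 h by Nano-Glo dual-luciferase detection.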

[1] = biological target: T1, human E3 ubiquitin-protein ligase RNF31 (HOIP) (Homo sapiens, UniProt Q96EP0); experiment: Cell-free HTRF-based HOIP inhibition assay; format: biochemical
T1 sequence (Q96EP0 695-1072 limits assumed): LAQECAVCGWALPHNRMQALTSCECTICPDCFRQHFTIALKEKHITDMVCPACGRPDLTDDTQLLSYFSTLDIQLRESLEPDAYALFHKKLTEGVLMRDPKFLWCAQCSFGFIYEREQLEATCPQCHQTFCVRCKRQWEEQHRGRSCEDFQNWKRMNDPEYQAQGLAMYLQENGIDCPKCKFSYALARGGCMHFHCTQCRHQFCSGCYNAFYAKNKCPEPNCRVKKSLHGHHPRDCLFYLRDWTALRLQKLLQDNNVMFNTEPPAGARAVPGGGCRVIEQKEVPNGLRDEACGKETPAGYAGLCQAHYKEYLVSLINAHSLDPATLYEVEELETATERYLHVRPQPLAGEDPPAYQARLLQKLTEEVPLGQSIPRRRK
Procedure, shortened: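 Recombinant human HOIP fragment (E. coli) preincubated with compounds (100-0.005 μM, 1% DMSO) and E1 for 1 h at 25° C. E2 and substrates then added; reaction 2.5 h at 25° C. HTRF read-out, excitation 337 nm, emissions 665/620 nm.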

[2] = tested on: bladder carcinoma RT4 cell line; experiment: TNF-α-induced cytotoxicity assay (CellTiter-Glo viability); format: cell-based
Procedure, shortened: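 RT4 bladder carcinoma cells, 1000 per well, stimulated with 1.25 ng/mL TNFα together with compound for 72 h at 37° C., 5% CO2. Viability read by CellTiter-Glo luminescence, proportional to cellular ATP, as a measure of HOIP-dependent cytotoxicity.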

IC50 (NF-κB signaling pathway; Homo sapiens, HEK293) [nM]	IC50 [1] [nM]	IC50 (NF-κB signaling pathway; HEK293, 2.5 ng/mL TNF, bin printed as 1.0 μM < IC50 ≤ 10 μM (lower bound in the cell to the left)) [nM]	IC50 ([1]; bin printed as 100 nM < IC50 ≤ 1.0 μM (lower bound in the cell to the left)) [nM]	SMILES	IC50 ([2]; Homo sapiens, RT-4, 72 h) [nM]	IC50 ([2]; RT4, 1.25 ng/mL TNFα, 72 h, bin printed as 1.0 μM < IC50 ≤ 10 μM (lower bound in the cell to the left)) [nM]
≤ 10000	≤ 1000	–	–	N=S(=O)(/C=C/CNC(=O)c1cc2c([nH]c1=O)CCCC2)c1ccc(F)cc1 (stereo not drawn) [Example 6, N-[(2E)-3-[(4-fluorophenyl)(imino)oxo-λ^6-sulfanyl]prop-2-en-1-yl]-2-oxo-1,2,5,6,7,8-hexahydroquinoline-3-carboxamide]	≤ 1000	–
≤ 1000	≤ 100	–	–	COCC(C)OC(=O)N1CCc2[nH]c(=O)c(C(=O)NC/C=C/S(=O)(=O)c3ccc(Cl)cc3)cc2C1 (stereo not drawn) [Example 94, 1-methoxypropan-2-yl 3-{[(2E)-3-(4-chlorobenzenesulfonyl)prop-2-en-1-yl]carbamoyl}-2-oxo-1,2,5,6,7,8-hexahydro-1,6-naphthyridine-6-carboxylate]	≤ 10000	–
≤ 1000	≤ 1000	–	–	N=S(=O)(/C=C/CNC(=O)c1cc2c([nH]c1=O)CCCC2)c1ccc(Oc2ccccc2)cc1 (stereo not drawn) [Example 140, N-[(2E)-3-[imino(oxo)(4-phenoxyphenyl)-λ^6-sulfanyl]prop-2-en-1-yl]-2-oxo-1,2,5,6,7,8-hexahydroquinoline-3-carboxamide]	≤ 1000	–
≤ 10000	≤ 1000	–	–	O=C(NC/C=C/S(=O)(=O)c1ccccc1)c1cc2c([nH]c1=O)CCN(C(=O)c1cnn(-c3ccccc3)n1)C2 [Example 112, N-[(2E)-3-(benzenesulfonyl)prop-2-en-1-yl]-2-oxo-6-(2-phenyl-2H-1,2,3-triazole-4-carbonyl)-1,2,5,6,7,8-hexahydro-1,6-naphthyridine-3-carboxamide]	≤ 10000	–
≤ 10000	≤ 1000	–	–	O=C(NC/C=C/S(=O)(=O)c1ccccc1)c1cc2c([nH]c1=O)CCN(C(=O)OCCF)C2 [Example 76, 2-fluoroethyl 3-{[(2E)-3-(benzenesulfonyl)prop-2-en-1-yl]carbamoyl}-2-oxo-1,2,5,6,7,8-hexahydro-1,6-naphthyridine-6-carboxylate]	≤ 10000	–
≤ 100	≤ 100	–	–	O=C(NC/C=C/S(=O)(=O)c1ccc(Cl)cc1)c1cc2c([nH]c1=O)CCCC2 [Example 21, N-[(2E)-3-(4-chlorobenzenesulfonyl)prop-2-en-1-yl]-2-oxo-1,2,5,6,7,8-hexahydroquinoline-3-carboxamide]	≤ 1000	–
–	–	≤ 10000	≤ 1000	O=C(NCC=CS(=O)(=O)c1ccccc1)c1cc2c([nH]c1=O)CCN(C(=O)OC1CCOC1)C2 [Example 82, (3R)-oxolan-3-vi 3-{[(2E)-3-(benzenesulfonyl)prop-2-en-1-yl]carbamoyl}-2-oxo-1,2,5,6,7,8-hexahydro-1,6-naphthyridine-6-carboxylate]	–	≤ 10000
≤ 1000	≤ 1000	–	–	O=C(NC/C=C/S(=O)(=O)c1ccc(F)cc1F)c1cc2c([nH]c1=O)CCCCC2 [Example 34, N-[(2E)-3-(2,4-difluorobenzenesulfonyl)prop-2-en-1-yl]-2-oxo-1H,2H,5H,6H,7H,8H,9H-cyclohepta[b]pyridine-3-carboxamide]	≤ 1000	–
≤ 1000	≤ 100	–	–	O=C(NC/C=C/S(=O)(=O)c1cccc(F)c1)c1cc2c([nH]c1=O)CCCC2 [Example 39, N-[(2E)-3-(3-fluorobenzenesulfonyl)prop-2-en-1-yl]-2-oxo-1,2,5,6,7,8-hexahydroquinoline-3-carboxamide]	≤ 1000	–
≤ 100000	≤ 1000	–	–	O=C(NC/C=C/S(=O)(=O)c1ccc(Cl)cc1)c1cc2c([nH]c1=O)CCN(C(=O)NCC1CC1)C2 [Example 100, N3-[(2E)-3-(4-chlorobenzenesulfonyl)prop-2-en-1-yl]-N6-(cyclopropylmethyl)-2-oxo-1,2,5,6,7,8-hexahydro-1,6-naphthyridine-3,6-dicarboxamide]	≤ 100000	–
≤ 10000	≤ 100	–	–	CC(=O)N1CCC(OC(=O)N2CCc3[nH]c(=O)c(C(=O)NC/C=C/S(=O)(=O)c4ccc(Cl)cc4)cc3C2)CC1 [Example 92, 1-acetylpiperidin-4-vi 3-{[(2E)-3-(4-chlorobenzenesulfonyl)prop-2-en-1-yl]carbamoyl}-2-oxo-1,2,5,6,7,8-hexahydro-1,6-naphthyridine-6-carboxylate]	≤ 100000	–
≤ 10000	≤ 100	–	–	O=C(NC/C=C/S(=O)(=O)c1ccccc1)c1cc2c([nH]c1=O)CCC2 [Example 43, N-[(2E)-3-(benzenesulfonyl)prop-2-en-1-yl]-2-oxo-1H,2H,5H,6H,7H-cyclopenta[b]pyridine-3-carboxamide]	≤ 10000	–
≤ 1000	≤ 100	–	–	O=C(NC/C=C/S(=O)(=O)c1ccc(Cl)cc1)c1cc2c([nH]c1=O)CCN(C(=O)OCC(F)(F)F)C2 [Example 97, 2,2,2-trifluoroethyl 3-{[(2E)-3-(4-chlorobenzenesulfonyl)prop-2-en-1-yl]carbamoyl}-2-oxo-1,2,5,6,7,8-hexahydro-1,6-naphthyridine-6-carboxylate]	≤ 10000	–

More lines, now with the values behind:

SMILES	IC50 (NF-κB signaling pathway; Homo sapiens, HEK293) [nM]	IC50 [1] [nM]	IC50 (NF-κB signaling pathway; HEK293, 2.5 ng/mL TNF, bin printed as 1.0 μM < IC50 ≤ 10 μM (lower bound in the cell to the left)) [nM]	IC50 ([1]; bin printed as 100 nM < IC50 ≤ 1.0 μM (lower bound in the cell to the left)) [nM]	IC50 ([2]; Homo sapiens, RT-4, 72 h) [nM]	IC50 ([2]; RT4, 1.25 ng/mL TNFα, 72 h, bin printed as 1.0 μM < IC50 ≤ 10 μM (lower bound in the cell to the left)) [nM]
N=S(=O)(/C=C/CNC(=O)c1cc2c([nH]c1=O)CCCC2)c1ccc(F)cc1F (stereo not drawn) [Example 135, N-[(2E)-3-[(2,4-difluorophenyl)(imino)oxo-λ^6-sulfanyl]prop-2-en-1-yl]-2-oxo-1,2,5,6,7,8-hexahydroquinoline-3-carboxamide]	≤ 1000	≤ 1000	–	–	≤ 10000	–
N=S(=O)(/C=C/CNC(=O)c1cc2c([nH]c1=O)CCCC2)c1cccc(Oc2ccccc2)c1 (stereo not drawn) [Example 146, N-[(2E)-3-[imino(oxo)(3-phenoxyphenyl)-λ^6-sulfanyl]prop-2-en-1-yl]-2-oxo-1,2,5,6,7,8-hexahydroquinoline-3-carboxamide]	≤ 1000	≤ 100	–	–	≤ 1000	–
O=C(NC/C=C/S(=O)(=O)c1ccccc1)c1cc2c([nH]c1=O)CCCCC2 [Example 38, N-[(2E)-3-(benzenesulfonyl)prop-2-en-1-yl]-2-oxo-1H,2H,5H,6H,7H,8H,9H-cyclohepta[b]pyridine-3-carboxamide]	≤ 1000	≤ 1000	–	–	≤ 1000	–
O=C(NC/C=C/S(=O)(=O)c1ccccc1)c1cc2c([nH]c1=O)CCN(C(=O)OC1CCCCC1)C2 [Example 90, cyclohexyl 3-{[(2E)-3-(benzenesulfonyl)prop-2-en-1-yl]carbamoyl}-2-oxo-1,2,5,6,7,8-hexahydro-1,6-naphthyridine-6-carboxylate]	≤ 1000	≤ 100	–	–	≤ 1000	–
COc1ccc(S(=N)(=O)/C=C/CNC(=O)c2cc3c([nH]c2=O)CCCCC3)cc1F (stereo not drawn) [Example 150, N-[(2E)-3-[(3-fluoro-4-methoxyphenyl)(imino)oxo-λ^6-sulfanyl]prop-2-en-1-yl]-2-oxo-1H,2H,5H,6H,7H,8H,9H-cyclohepta[b]pyridine-3-carboxamide]	≤ 10000	≤ 1000	–	–	≤ 1000	–
O=C(NC/C=C/S(=O)(=O)c1ccccc1)c1cc2cccnc2[nH]c1=O [Example 47, N-[(2E)-3-(benzenesulfonyl)prop-2-en-1-yl]-2-oxo-1,2-dihydro-1,8-naphthyridine-3-carboxamide]	≤ 10000	≤ 1000	–	–	≤ 10000	–
O=C(NC/C=C/S(=O)(=O)c1ccccc1F)c1cc2c([nH]c1=O)CCCC2 [Example 24, N-[(2E)-3-(2-fluorobenzenesulfonyl)prop-2-en-1-yl]-2-oxo-1,2,5,6,7,8-hexahydroquinoline-3-carboxamide]	≤ 1000	≤ 100	–	–	≤ 1000	–
CC(C)(C)OC(=O)N1CCc2[nH]c(=O)c(C(=O)NC/C=C/S(=O)(=O)c3ccccc3F)cc2C1 [Example 22, tert-butyl 3-{[(2E)-3-(2-fluorobenzenesulfonyl)prop-2-en-1-yl]carbamoyl}-2-oxo-1,2,5,6,7,8-hexahydro-1,6-naphthyridine-6-carboxylate]	≤ 1000	≤ 100	–	–	≤ 1000	–
COCC(C)OC(=O)N1CCc2[nH]c(=O)c(C(=O)NC/C=C/S(=O)(=O)c3ccccc3)cc2C1 (stereo not drawn) [Example 75, 1-methoxypropan-2-vi 3-{[(2E)-3-(benzenesulfonyl)prop-2-en-1-yl]carbamoyl}-2-oxo-1,2,5,6,7,8-hexahydro-1,6-naphthyridine-6-carboxylate]	≤ 10000	≤ 1000	–	–	≤ 10000	–
CC(C)Oc1ccc(S(=N)(=O)/C=C/CNC(=O)c2cc3c([nH]c2=O)CCCC3)cc1 (stereo not drawn) [Example 138, N-[(2E)-3-[imino(oxo)[4-(propan-2-yloxy)phenyl]-λ^6-sulfanyl]prop-2-en-1-yl]-2-oxo-1,2,5,6,7,8-hexahydroquinoline-3-carboxamide]	≤ 1000	≤ 1000	–	–	≤ 1000	–
